Reference: patent publication US7435837B2, “Dihydrobenzofuranyl alkanamine derivatives and methods for using same” (Wyeth, priority 2003, dated 2008)

Key:
[1] = biological target: T1, human 5-hydroxytryptamine-2C (h5-HT2C) receptor (Homo sapiens, UniProt P28335); experiment: [125I]DOI binding to membranes of CHO cells expressing the human 5-HT2C receptor; conditions: for Ki: [125I]DOI radioligand, CHO cell membranes, room temperature 60 min, read-out: 5-HT2C Affinity Ki
T1 construct: expressed in transfected cells; host or cells: CHO (Chinese Hamster Ovary) cells; membranes
T1 sequence (P28335 33-458): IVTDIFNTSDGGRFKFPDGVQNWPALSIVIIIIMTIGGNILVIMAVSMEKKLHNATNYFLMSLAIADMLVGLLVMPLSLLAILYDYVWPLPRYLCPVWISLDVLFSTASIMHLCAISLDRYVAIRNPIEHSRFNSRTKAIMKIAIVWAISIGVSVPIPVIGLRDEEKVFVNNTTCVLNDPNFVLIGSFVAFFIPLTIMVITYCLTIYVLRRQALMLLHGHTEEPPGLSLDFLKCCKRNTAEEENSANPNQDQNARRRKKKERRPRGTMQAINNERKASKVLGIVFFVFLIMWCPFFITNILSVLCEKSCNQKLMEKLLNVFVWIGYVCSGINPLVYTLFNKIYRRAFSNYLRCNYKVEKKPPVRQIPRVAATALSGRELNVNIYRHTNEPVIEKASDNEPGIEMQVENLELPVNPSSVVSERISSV

human 5-HT2C receptor = biological target: T2, human 5-HT2C receptor (Homo sapiens, UniProt P28335); experiment: 5-HT2C receptor-stimulated calcium mobilization (FLIPR) in CHO cells; format: cell-based; conditions: for EC50: calcium mobilization, CHO cells stably expressing human 5-HT2C, read-out: 5-HT2C Function EC50; for 5-HT2C Function Emax (%) / Emax: percentage of the response observed with a maximally effective concentration of 5-HT; for Emax: CHO, read-out: 5-HT2C Function Emax (%);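 on all read-outs here: Fluo-3-AM fluorescence read on FLIPR every 1 s, agonist added after 10 baseline reads, response taken as peak minus lowest raw fluorescence count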
T2 sequence (P28335 33-458): T1 sequence (P28335 33-458)

Row | Compound | Ki [1] [nM] | EC50 (human 5-HT2C receptor) [nM] | further results
1 | NCC1Cc2cccc(-c3cccc(Cl)c3)c2O1 (single isomer, unassigned; (-)) [Example 67, (−)-1-[7-(3-chlorophenyl)-2,3-dihydro-1-benzofuran-2-yl]methanamine] | 83 | 5760 | 5-HT2C Function Emax (%) (human 5-HT2C receptor): 70%
2 | CC(C)(C)c1cccc2c1OC(CN)C2 (single isomer, unassigned; (-)) [Example 25, (−)-1-(7-tert-butyl-2,3-dihydro-1-benzofuran-2-yl)methanamine] | 18 | 10 | Emax (human 5-HT2C receptor): 90%
3 | NCC1Cc2cc(Cl)cc(-c3ccc(Cl)cc3Cl)c2O1 (single isomer, unassigned; (-)) [Example 252, (−)-{[5-chloro-7-(2,4-dichlorophenyl)-2,3-dihydro-1-benzofuran-2-yl]methyl}amine] | 1.1 | 3 | Emax (human 5-HT2C receptor): 100%
4 | NCC1Cc2c(cccc2-c2ccccc2)O1 (single isomer, unassigned; (+)) [Example 2, (+)-1-(4-phenyl-2,3-dihydro-1-benzofuran-2-yl)methanamine] | 16 | 61 | Emax (human 5-HT2C receptor): 90%
5 | Cc1ccc(-c2cccc3c2OC(CN)C3)cc1 (single isomer, unassigned; (-)) [Example 72, (−)-1-[7-(4-methylphenyl)-2,3-dihydro-1-benzofuran-2-yl]methanamine] | 33 | 511 | 5-HT2C Function Emax (%) (human 5-HT2C receptor): 85%
6 | COc1cc2c(c(-c3cc(Cl)ccc3OC)c1)OC(CN)C2 (racemic) [Example 372, (±)-{[7-(5-chloro-2-methoxyphenyl)-5-methoxy-2,3-dihydro-1-benzofuran-2-yl]methyl}amine] | 23 | 224 | Emax (human 5-HT2C receptor): 80%
7 | Cc1cc2c(c(-c3ccc(Cl)cc3Cl)c1)OC(CN)C2 (single isomer, unassigned; (+)) [Example 299, (+)-{[7-(2,4-dichlorophenyl)-5-methyl-2,3-dihydro-1-benzofuran-2-yl]methyl}amine] | 0.19 | 0.1 | 5-HT2C Function Emax (%) (human 5-HT2C receptor): 100%
8 | NCC1Cc2cccc(-c3ccccc3Cl)c2O1 (racemic) [Example 60, (±)-1-[7-(2-chlorophenyl)-2,3-dihydro-1-benzofuran-2-yl]methanamine] | 0.3 | 12 | Emax (human 5-HT2C receptor): 100%
9 | Cc1ccc(-c2cc(F)cc3c2OC(CN)C3)cc1 (racemic) [Example 201, (±)-{[5-fluoro-7-(4-methylphenyl)-2,3-dihydro-1-benzofuran-2-yl]methyl}amine] | 8 | 396 | Emax (human 5-HT2C receptor): 80%
10 | NCC1Cc2cc(C(F)(F)F)cc(-c3ccc(F)cc3)c2O1 (racemic) [Example 324, (±)-{[5-(trifluoromethyl)-7-(4-fluorophenyl)-2,3-dihydro-1-benzofuran-2-yl]methyl}amine] | 60 |  | 
11 | NCC1Cc2cccc(-c3cccnc3)c2O1 (single isomer, unassigned; (-)) [Example 172, (−)-{[7-pyridin-3-yl-2,3-dihydro-1-benzofuran-2-yl]methyl}amine] | 185 |  | 
12 | Cc1cc2c(c(-c3c(Cl)cccc3Cl)c1)OC(CN)C2 (single isomer, unassigned; (-)) [Example 303, (−)-{[7-(2,6-dichlorophenyl)-5-methyl-2,3-dihydro-1-benzofuran-2-yl]methyl}amine] | 0.2 |  | 
13 | Cc1cccc(C)c1-c1cccc2c1CC(CN)O2 (racemic) [Example 125, (±)-1-[4-(2,6-dimethylphenyl)-2,3-dihydro-1-benzofuran-2-yl]methanamine] | 276 |  | 
14 | Cc1ccccc1-c1c(F)ccc2c1OC(CN)C2 (single isomer, unassigned; (+)) [Example 396, (+)-{[6-fluoro-7-(2-methylphenyl)-2,3-dihydro-1-benzofuran-2-yl]methyl}amine] | 0.3 |  | 
15 | NCC1Cc2cc(C(F)(F)F)cc(-c3ccc(F)c(Cl)c3)c2O1 (racemic) [Example 335, (±)-{[7-(3-chloro-4-fluorophenyl)-5-(trifluoromethyl)-2,3-dihydro-1-benzofuran-2-yl]methyl}amine] | 192 |  | 
16 | NCC1Cc2cc(Cl)cc(C3CCCCC3)c2O1 (racemic) [Example 11, (±)-(5-chloro-7-cyclohexyl-2,3-dihydro-1-benzofuran-2-yl)methylamine] | 106 |  | 
17 | CNCC1Cc2cc(-c3ccccc3)cc(-c3ccc(Cl)cc3)c2O1 (racemic) [Example 507, (±)-{[7-(4-chlorophenyl)-5-phenyl-2,3-dihydro-1-benzofuran-2-yl]methyl}methylamine] | 2730 |  | 
18 | NCC1Cc2c(C(F)(F)F)ccc(Cl)c2O1 (racemic) [Example 14, (±)-[7-chloro-4-(trifluoromethyl)-2,3-dihydro-1-benzofuran-2-yl]methanamine] | 78 |  | 
19 | NCC1Cc2cc(Cl)cc(-c3cccc(Cl)c3)c2O1 (racemic) [Example 89, (±)-1-[5-chloro-7-(3-chlorophenyl)-2,3-dihydro-1-benzofuran-2-yl]methanamine] | 40 |  | 
20 | NCC1Cc2cccc(-c3cccc(C(F)(F)F)c3)c2O1 (single isomer, unassigned; (+)) [Example 136, (+)-1-{7-[3-(trifluoromethyl)phenyl]-2,3-dihydro-1-benzofuran-2-yl}methanamine] | 124 |  | 
21 | COc1cc(CC(C)N)c(OC)cc1I (centres unmarked) [[^125I] DOI, reference compound] |  |  | Kd ([1]; saturation binding with increasing concentrations of [125I] DOI, read-out: dissociation constant, KD): 0.4 nM
22 | CN(C)C[C@H]1Cc2cc(F)cc(-c3c(Cl)cccc3Cl)c2O1 [Example 547, (R)-[7-(2,6-dichloro-phenyl)-5-Fluoro-2,3-dihydro-benzofuran-2-ylmethyl]dimethylamine] | 1.8 |  | 
23 | CNCC1Cc2ccc(Cl)c(-c3ccccc3Cl)c2O1 (racemic) [Example 404, (±)-{[6-chloro-7-(2-chlorophenyl)-2,3-dihydro-1-benzofuran-2-yl]methyl}methylamine] | 0.4 |  | 
24 | NCC1Cc2cccc(-c3ccc(F)cc3)c2O1 (single isomer, unassigned; (-)) [Example 75, (−)-1-[7-(4-fluorophenyl)-2,3-dihydro-1-benzofuran-2-yl]methanamine] | 103 |  | 
25 | NCC1Cc2cc(-c3ccccc3)cc(-c3ccc(F)cc3F)c2O1 (racemic) [Example 354, (±)-{[7-(2,4-difluorophenyl)-5-phenyl-2,3-dihydro-1-benzofuran-2-yl]methyl}amine] | 610 |  | 
26 | Cc1cccc(-c2cc(C(F)(F)F)cc3c2OC(CN)C3)c1C (racemic) [Example 328, (±)-{[7-(2,3-dimethylphenyl)-5-(trifluoromethyl)-2,3-dihydro-1-benzofuran-2-yl]methyl}amine] | 61 |  | 
27 | COc1cccc2c1OC(CN)C2 (racemic) [Example 7, (±)-1-(7-methoxy-2,3-dihydro-1-benzofuran-2-yl)methanamine] | 160 |  | 
28 | COc1cccc(-c2cccc3c2OC(CN)C3)c1OC (single isomer, unassigned; (+)) [Example 157] | 58 |  | 
29 | NCC1Cc2cccc(-c3ccc(F)c(Cl)c3)c2O1 (racemic) [Example 34, (±)-1-[7-(3-chloro-4-fluorophenyl)-2,3-dihydro-1-benzofuran-2-yl]methanamine] | 37 |  | 
